Reference: the COVID Moonshot data (paper PMC7615835)
“And” between values parts separate entries of the source, which are not always exact repeats. Equal values may be shown once.

biological target: SARS-CoV-2 Main Protease (SARS-CoV-2) (UniProt P0DTD1)

First: C=CC(=O)N(c1ccc(I)cc1)C(C(=O)Nc1ccc(Cl)cc1)c1cncnc1 (centres undefined)
Second: C=CC(=O)N(c1ccc(C(C)(C)C)cc1)C(C(=O)Nc1ccc(OC)cc1OC)c1cccnc1 (centres undefined)
The IC50 of the first is 4.1-fold higher: 26.3 µM for the first, 6.47 µM for the second.

Going from O=C(Cc1cc(Cl)cc(NC23CC4CC(CC(O)(C4)C2)C3)c1)Nc1cncc2ccccc12 to O=C(Cc1cc(Cl)cc(Nc2n[nH]cc2Br)c1)Nc1cncc2ccccc12, the IC50 rises from 2.87 µM to 5.04 µM (1.8-fold). The first is the more potent here.

First: Cc1ccncc1C(C(=O)NCCc1cccc(F)c1)N(C(=O)c1cocn1)c1ccc(C(C)(C)C)cc1 (centres undefined)
Second: Cn1cccc(C(C(=O)NCCc2cccc(F)c2)N(C(=O)c2cocn2)c2ccc(C(C)(C)C)cc2)c1=O (centres undefined)
The IC50 of the first is lower: 0.653 µM for the first, over 99.5 µM for the second. The first is the more potent here.

O=C(CN1CC(C(=O)Nc2cncc3ccccc23)c2cc(Cl)ccc2C1=O)NCC(F)(F)F (centres undefined) and COCCN1CC(C(=O)Nc2cncc3ccccc23)c2cc(Cl)ccc2C1=O (centres undefined) are within 1.5-fold of each other in IC50: 0.34 µM for the first, 0.267 µM for the second.

First: O=C(Cc1cccc(Cl)c1)Nc1cccc2cn[nH]c12
Second: COc1ccc2ncc(NC(=O)Cc3cccc(Cl)c3)n2c1
The IC50 of the first is higher: over 99.5 µM for the first, 15.9 µM for the second.

COc1cc(Nc2cc(Cl)cc(CC(=O)Nc3cncc4ccccc34)c2)cc(OC)c1 and COc1cc(CNc2cc(Cl)cc(CC(=O)Nc3cncc4ccccc34)c2)cc(OC)c1 are within 1.5-fold of each other in IC50: 1.96 µM for the first, 2.87 µM for the second.

Cn1cc(C(=O)N(c2ccc(C(C)(C)C)cc2)C(C(=O)NCCc2cccc(F)c2)c2cccnc2)n(C)c1=O (centres undefined) and Cc1cnoc1C(=O)N(c1ccc(C(C)(C)C)cc1)C(C(=O)NCCc1cccc(F)c1)c1cccnc1 (centres undefined) cannot be ordered by IC50: over 99.5 µM for the first, over 99.5 µM for the second.

Compared with O=C(NCCc1cccc(F)c1)C(c1cccnc1)N(C(=O)c1ccco1)C1CCN(c2ccccc2)CC1 (centres undefined), O=C(NCCc1cccc(F)c1)C(c1cccnc1)N(C(=O)c1cnc[nH]1)C1CCN(c2ccccc2F)C1 (centres undefined) is higher in IC50: 79.6 µM for the first, over 99 µM for the second. The first is the more potent here.

Compared with O=C(Nc1cncn1-c1cccnc1)C1CCOc2ccc(Cl)cc21 (centres undefined), O=C(Nc1cncc2c1CNCC2)C1CCOc2ccc(Cl)cc21 (centres undefined) is lower in IC50: over 99.5 µM for the first, 6.16 µM for the second.

Going from CCOC(=O)c1nc(S(C)(=O)=O)ncc1Cl to CCOC(=O)[C@H]1CCCN(c2cc(Cl)cc(CC(=O)Nc3cncc4ccccc34)c2)C1 (stereo in doubt), the IC50 rises from 1.6 µM to 2.43 µM (1.5-fold). The first is the more potent here.

First: N#Cc1cnn(C(=O)c2cccs2)c1C1CC1
Second: COC(=O)c1c(C)nn(C(=O)c2cccs2)c1-c1snnc1C
The IC50 of the first is 1.8-fold lower: 3.24 µM for the first, 5.72 µM for the second. The first is the more potent here.

Nc1nn(C(=O)Cc2cccc(Cl)c2)c2cccc(F)c12 and Nc1nn(C(=O)Cc2cccc(Cl)c2)c2ccccc12 cannot be ordered by IC50: over 99.5 µM for the first, over 99.5 µM for the second.

Compared with CC(=O)c1ccccc1C(=O)N(c1ccc(C(C)(C)C)cc1)C(C(=O)NCCc1cccc(F)c1)c1cccnc1 (centres undefined), CC(C)(C)c1ccc(N(C(=O)CCC#N)C(C(=O)NCCc2cccc(F)c2)c2cccnc2)cc1 (centres undefined) is lower in IC50: over 99.5 µM for the first, 3.8 µM for the second.

O=C(NNc1cc(O)nc2ncccc12)c1ccc2[nH]ccc2c1 and COc1ccccc1NCCNC(=O)c1cc(=O)[nH]c2ccccc12 cannot be ordered by IC50: over 99.5 µM for the first, over 99.5 µM for the second.

Going from CC(C)(C)OC(=O)NCCNC(=O)C(c1cccnc1)N(C(=O)c1cocn1)c1ccc(C(C)(C)C)cc1 (centres undefined) to COC(=O)CNC(=O)C(c1cccnc1)N(C(=O)c1cocn1)c1ccc(C(C)(C)C)cc1 (centres undefined), the IC50 rises from 6.26 µM to 10.8 µM (1.7-fold).

Going from O=C(Nc1cncc2ccccc12)N(CCC1CCCCC1)c1cccc(Cl)c1 to O=C(NCc1cccc(Cl)c1)c1cncc2ccccc12, the IC50 rises from 0.261 µM to 32 µM (120-fold).

Compared with O=C(Cc1cccc(Cl)c1)Nc1cncc2c1CCCC2, C[C@@]1(C(=O)Nc2cncc3c2CCCC3)CNS(=O)(=O)c2ccc(Cl)cc21 (stereo in doubt) is lower in IC50: over 99.5 µM for the first, 3.72 µM for the second.

Going from O=C(Cn1nnc2ccccc21)N(Cc1ccccn1)c1ccc(-n2cnnc2)cc1 to CN(C)c1ccc(N(Cc2cccc(Cl)c2)C(=O)Cn2nnc3ccccc32)cc1, the IC50 falls from over 99.5 µM to 0.497 µM.

Going from CC(C)(C)c1ccc(N(C(=O)c2nc3c(s2)CCC3)C(C(=O)NCCc2cccc(F)c2)c2cccnc2)cc1 (centres undefined) to O=C(NCCc1cccc(F)c1)C(c1cccnc1)N(C(=O)c1cocn1)c1ccc(-n2cc[nH]c2=O)cc1 (centres undefined), the IC50 falls from over 99.5 µM to 45.1 µM. The second is the more potent here.

Compared with CNC(=O)Nc1ccc(N(Cc2ccsc2)C(=O)Cn2nnc3ccccc32)cc1, NCc1cn(CC(=O)N(Cc2ccsc2)c2ccc(-c3ccccc3)cc2)nn1 is higher in IC50: 1.42 µM for the first, over 99.5 µM for the second. The first is the more potent here.

Going from O=C(Nc1cncc2ccccc12)C1CCOc2c(O)ccc(Cl)c21 (centres undefined) to O=C(Nc1cncc2ccccc12)C1CCOc2c(O)cc(Cl)cc21 (centres undefined), the IC50 falls from over 99.5 µM to 0.579 µM.

Compared with O=C(Cc1cccc(Cl)c1)Nc1cncc2ccc(OCC(F)(F)F)cc12, O=C(Cc1cccc(C(F)(F)F)c1)Nc1cnccc1C(=O)O is higher in IC50: 1.09 µM for the first, over 99.5 µM for the second. The first is the more potent here.

O=C(Cc1cc(Cl)cc(Nc2ccc(F)c(Br)c2)c1)Nc1cncc2ccccc12 and O=C(Cc1cc(Cl)cc(Nc2c(Cl)cc(Cl)cc2Br)c1)Nc1cncc2ccccc12 are within 1.5-fold of each other in IC50: 1.97 µM for the first, 1.63 µM for the second.

Cn1cnc2cc(N(C(=O)c3cocn3)C(C(=O)NCCc3cccc(F)c3)c3cccnc3)ccc21 (centres undefined) and O=C(NCCc1cccc(F)c1)C(c1cccnc1)N(C(=O)c1cocn1)C1CCc2ccccc21 (centres undefined) cannot be ordered by IC50: over 99.5 µM for the first, over 99.5 µM for the second.

Compared with CNC(=O)c1ccc2cncc(NC(=O)C3CN(S(=O)(=O)CC4(C#N)CC4)Cc4ccc(Cl)cc43)c2c1 (centres undefined), CN(c1ccc2c(NC(=O)C3CN(S(=O)(=O)CC4(C#N)CC4)Cc4ccc(Cl)cc43)cncc2c1)S(C)(=O)=O (centres undefined) is 2-fold higher in IC50: 0.116 µM for the first, 0.232 µM for the second.

O=c1[nH]c(-c2nnc[nH]2)nc2cc(-c3ccccc3Cl)sc12 and O=C(Cn1nnc2ccccc21)Nc1cccc(Cl)c1 cannot be ordered by IC50: over 99.5 µM for the first, over 99.5 µM for the second.

Going from O=C(CN(C(=O)Cn1nnc2ccccc21)c1ccc(-c2ccccc2)cc1)N1CCNCC1 to O=C(Cc1cc(Cl)cc(N2CCN(C(=O)OCc3ccccc3)CC2)c1)Nc1cncc2ccccc12, the IC50 falls from over 99.5 µM to 2.23 µM. The second is the more potent here.

First: CNC(=O)CN1CC2(CCN(c3cncc4cc(Cl)ccc34)C2=O)c2cc(Cl)ccc2C1=O (centres undefined)
Second: CNC(=O)CN1Cc2ccc(Cl)cc2C2(CCN(c3cncc4c3CCCC4)C2=O)C1 (centres undefined)
The IC50 of the first is 1.7-fold higher: 0.449 µM for the first, 0.258 µM for the second. The second is the more potent here.

Compared with CCN(C)CCOc1ccc2cncc(N3CCC4(CN(S(=O)(=O)CC5(C#N)CC5)Cc5ccc(Cl)cc54)C3=O)c2c1 (centres undefined), N#CC1(CS(=O)(=O)N2Cc3ccc(Cl)cc3C3(CCN(c4cncc5ccccc45)C3=O)C2)CCCC1 (centres undefined) is 1.6-fold lower in IC50: 0.401 µM for the first, 0.244 µM for the second.

CC1CC(CCN(C(=O)c2ccco2)C(C(=O)NCCc2cccc(F)c2)c2cccnc2)CC(C)(C)C1 (centres undefined) and O=C(NCCc1cccc(F)c1)C(c1cccnc1)N(C(=O)c1cocn1)C1CC2CCCC2C1 (centres undefined) cannot be ordered by IC50: over 99.5 µM for the first, over 99.5 µM for the second.

Going from O=C(Cc1cc(Cl)cc(Nc2c(F)cc(F)cc2Cl)c1)Nc1cncc2ccccc12 to O=C(Cc1cc(Cl)cc(Nc2cc(Cl)cc([N+](=O)[O-])c2O)c1)Nc1cncc2ccccc12, the IC50 rises from 2.06 µM to 4.69 µM (2.3-fold).

CC(C(=O)Nc1cccc2nccnc12)n1cnc2c(N)ncnc21 (centres undefined) and COc1ccc2c(N)nn(C(=O)Cc3cccc(Cl)c3)c2c1 cannot be ordered by IC50: over 99.5 µM for the first, over 99.5 µM for the second.

COc1ccc(-c2cc(N)n(-c3cc(Cl)cc(CC(=O)Nc4cncc5ccccc45)c3)n2)cc1 and O=C(Cc1cc(Cl)cc(Nc2nc(-c3ccc(Cl)c(Cl)c3)cs2)c1)Nc1cncc2ccccc12 are within 1.5-fold of each other in IC50: 2.71 µM for the first, 2.46 µM for the second.

Going from Cc1nc(-c2cccc(NCc3ccccc3C)c2)n[nH]1 to O=C(Cc1cccc(Cl)c1)Nn1nnc2ccccc21, the IC50 falls from over 99.5 µM to 5.8 µM.

Compared with C[C@H](Nc1cc(Cl)cc(CC(=O)Nc2cncc3ccccc23)c1)c1ccc(Br)cc1 (stereo in doubt), O=C(Cc1cc(Cl)cc(Nc2ccc(Oc3ccc(Cl)cc3)cc2)c1)Nc1cncc2ccccc12 is 1.5-fold lower in IC50: 3.77 µM for the first, 2.44 µM for the second.

Compared with Cn1ccc(CN2Cc3ccc(Cl)cc3C(C(=O)Nc3cncc4ccc(F)cc34)C2)n1 (centres undefined), CCOC(=O)N1Cc2ccc(Cl)cc2C(C(=O)Nc2cncc3ccccc23)C1 (centres undefined) is 5.7-fold lower in IC50: 1.35 µM for the first, 0.236 µM for the second.

COc1ccc(NC(=O)C(c2cccnc2)N(C(=O)c2cocn2)c2ccc(C(C)(C)C)cc2)cn1 (centres undefined) and CN(C(=O)OC(C)(C)C)[C@H]1CCN(c2cc(Cl)cc(CC(=O)Nc3cncc4ccccc34)c2)C1 (stereo in doubt) are within 1.5-fold of each other in IC50: 5.37 µM for the first, 4.21 µM for the second.

COc1cc(COc2cc(Cl)cc(CC(=O)Nc3cnccc3C)c2)ccc1OC(F)F and Cc1ccncc1NC(=O)Cc1cc(Cl)cc(-c2ncc[nH]2)c1 cannot be ordered by IC50: over 99.5 µM for the first, over 99.5 µM for the second.

Going from Cc1nc2ccc(NC(=O)Cn3ncn4nccc4c3=O)cc2s1 to O=C(Cc1cccc(Cl)c1)Nn1cnc2ccccc2c1=O, the IC50 falls from over 99.5 µM to 8.65 µM.

Cc1nc(CN2C(=O)C(=O)c3cc(Br)ccc32)cs1 and Cc1ccc2ncnc(NCc3ccc4nonc4c3)c2c1 cannot be ordered by IC50: over 99.5 µM for the first, over 99.5 µM for the second.

First: O=C(Cc1cc(Cl)cc(N2CCN(Cc3cccc(F)c3)CC2)c1)Nc1cncc2ccccc12
Second: O=C(Cc1cc(Cl)cc(N2CC=C(c3ccccc3)CC2)c1)Nc1cncc2ccccc12
The IC50 of the first is 2-fold higher: 3.28 µM for the first, 1.66 µM for the second. The second is the more potent here.

Compared with O=C(Cc1cc(Cl)cc(Nc2ccc(OCc3ccccc3)cc2)c1)Nc1cncc2ccccc12, CC(C)(C#N)CS(=O)(=O)N1Cc2ccc(Cl)cc2[C@@H](C(=O)Nc2cncc3ccccc23)C1 (stereo in doubt) is 1.6-fold higher in IC50: 8.23 µM for the first, 13.2 µM for the second.

First: CN(CCO)C1CCN(C(=O)CC2(C(=O)Nc3cncc4ccccc34)CCOc3ccc(Cl)cc32)CC1 (centres undefined)
Second: COC(=O)/C=C/C(=O)N(C(=O)[C@@H]1CCOc2ccc(Cl)cc21)c1cncc2ccccc12 (stereo in doubt)
The IC50 of the first is 75-fold higher: 37.6 µM for the first, 0.5 µM for the second. The second is the more potent here.

Cc1cc(C(=O)N2CCC(C3CCNC3)CC2)cc(C)c1OC(F)F (centres undefined) and CN1CCN(c2ccc(F)cc2C(=O)N2CCC(C3CCNC3)CC2)CC1 (centres undefined) cannot be ordered by IC50: over 99.5 µM for the first, over 99.5 µM for the second.

Going from NS(=O)(=O)c1cc(CN2CCN(C(c3ccccc3)c3ccccc3)CC2)co1 to N#CCC1(CS(=O)(=O)N2Cc3ccc(Cl)cc3C3(CCN(c4cncc5ccccc45)C3=O)C2)CC1 (centres undefined), the IC50 falls from over 99.5 µM to 0.337 µM. The second is the more potent here.

N#Cc1ccc(C(=O)N2C[C@@H](F)C[C@H]2CNC(=O)C2CCCC2O)[nH]1 (stereo in doubt) and Cc1ccc(Nc2ccccc2C(=O)N2CCC(C3CCNC3)CC2)cc1 (centres undefined) cannot be ordered by IC50: over 99.5 µM for the first, over 99.5 µM for the second.

Cc1cc(C)nc(NC2CCN(C(=O)CCl)CC2)n1 and Cc1ccc(S(=O)(=O)N2CCN(C(=O)CCl)CC2)cc1 are within 1.5-fold of each other in IC50: 27.6 µM for the first, 21 µM for the second.

For O=C(Nc1nncn1C1CC1)C1CCOc2ccc(Cl)cc21 (centres undefined), the IC50 was 0.513 µM and 0.696 µM.
In the case of O=C(CCl)N1CCN(S(=O)(=O)c2cccc(F)c2)CC1, the IC50 is reported as 4.1 µM and 5.05 µM and 2.38 µM.
O=C(Cc1cccnc1)Nc1cccc(OC2CC(=O)N2)c1 (centres undefined) was tested, and the IC50 was 82.6 µM and 94.4 µM.
With CC(NC(=O)COc1ccc(C(N)=O)cc1)(C(=O)Nc1cncc2ccccc12)c1ccc(Cl)c(Cl)c1 (centres undefined) the IC50 was 10.5 µM and 14.3 µM.
In the case of CC(C(=O)OC1CCCN(Cc2cccc(C(F)(F)F)c2)C1=O)n1cnc(C#N)n1 (centres undefined), the IC50 is reported as 8.45 µM and 10.2 µM.
